Data set [1] has as its system patients with diabetic neuropathy. Kind of data set: Clinical study, chronic pain in patients with diabetic neuropathy. The format is in vivo, human. The settings on record: 2400 mg/day, Maintenance and Follow-up Periods, statistically significant. The procedure: Patients are randomized to receive 2400 mg/day of the compound or placebo in a 1:1 ratio.
The study consists of a Pre-randomization Phase (1 week) and a Double-blind Phase (5 weeks). The double-blind Phase consists of three periods: a one week Titration Period, a three-week Maintenance Period and a one-week Follow-up Period.
During the 1-week Pre-randomization Phase, the eligibility of the patients is evaluated. Patients meeting all inclusion/exclusion criteria are randomized to either the compound or placebo in the Double-blind Phase. During the 1-week Titration Period, study medication is up-titrated from 800 mg/day (given b.i.d.) to 2400 mg/day (given b.i.d.). Patients who complete the 1-week Titration Period then enter the 3-week Maintenance Period. Patients who complete the 3-week Maintenance period or prematurely discontinue double-blind treatment then enter the 1-week Follow-up Period. Study medication is completely withdrawn on entry into the Follow-up Period. During the Double-blind Phase, serial efficacy and safety assessments are obtained. […]
The SF-MPQ total pain score at the end of the Maintenance Period is analyzed using an analysis of covariance model adjusting for the effect of treatment on post-treatment scores by using the baseline SF-MPQ total pain score as a covariate. Average weekly pain severity is analyzed using an analysis of covariance model with repeated measures using the treatment week and the mean pain severity rating during the Pre-randomization Phase as covariates. Usage of rescue medication during the Double-blind Phase is analyzed using the Cochran-Mantel-Haenszel test controlling for center. The mean pain severity rating during the Follow-up Period (rebound pain) is analyzed using an analysis of covariance model adjusting for the effect of treatment on the mean pain severity rating of the Follow-up Period with the mean pain severity rating during the Prerandomization Phase as a covariate.

Structures are written as SMILES.

In general, melting point refers to the temperature of the solid-liquid transition.

As to `CN(CCO)c1cc2c(=O)n(NS(C)(=O)=O)c(=O)[nH]c2cc1C(F)(F)F` [Example 83, N-{6-[(2-Hydroxy-ethyl)-methyl-amino]-2,4-dioxo-7-trifluoromethyl-1,4-dihydro-2H-quinazolin-3-yl}-methanesulfonamide], the “pain severity ratings relative to placebo” value in data set [1] was “decrease pain severity ratings relative to placebo”. In the case of `CS(=O)(=O)Nn1c(=O)[nH]c2cc(C(F)(F)F)c(-n3cnc(C(F)(F)F)c3)cc2c1=O` [Example 96, N-[6-(4-Trifluoromethyl-imidazol-1-yl)-2,4-dioxo-7-trifluoromethyl-1,4-dihydro-2H-quinazolin-3-yl]-methanesulfonamide], the melting point fell in the range of 144 to 147 °C. Same read-out and setting: as for `CS(=O)(=O)Nn1c(=O)[nH]c2cc(C(F)(F)F)c(Oc3cccnc3)cc2c1=O` [Example 80, N-[2,4-Dioxo-6-(pyridin-3-yloxy)-7-trifluoromethyl-1,4-dihydro-2H-quinazolin-3-yl]-methanesulfonamide], the figure is 194 to 196 °C; as for `CS(=O)(=O)Nn1c(=O)[nH]c2cc([N+](=O)[O-])c(-n3cnc(CO)c3)cc2c1=O` [Example 2, N-[6-(4-Hydroxymethyl-imidazol-1-yl)-7-nitro-2,4-dioxo-1,4-dihydro-2H-quinazolin-3-yl]-methanesulfonamide], greater than 300 °C; as for `CCS(=O)(=O)Nn1c(=O)[nH]c2cc(C(F)(F)F)c(-n3cnnc3)cc2c1=O` [Example 70, Ethanesulfonic acid (2,4-dioxo-6-[1,2,4]triazol-4-yl-7-trifluoromethyl-1,4-dihydro-2H-quinazolin-3-yl)-amide], 185 to 195 °C. The same measure, in the same setting: with `COCc1ccc(-c2cn(-c3cc4c(=O)n(NS(C)(=O)=O)c(=O)[nH]c4cc3C(F)(F)F)cn2)cc1` [Example 85, N-{6-[4-(4-Methoxymethyl-phenyl)-imidazol-1-yl]-2,4-dioxo-7-trifluoromethyl-1,4-dihydro-2H-quinazolin-3-yl}-methanesulfonamide] the figure was 252 to 257 °C; with `CS(=O)(=O)Nn1c(=O)[nH]c2cc([N+](=O)[O-])c(NCC(O)c3cccs3)cc2c1=O` (stereo not shown) [Example 6, N-[6-(2-Hydroxy-2-thiophen-2-yl-ethylamino)-7-nitro-2,4-dioxo-1,4-dihydro-2H-quinazolin-3-yl]-methanesulfonamide], 110 °C (dec.). `CN(C)c1cc2c(=O)n(NS(C)(=O)=O)c(=O)[nH]c2cc1C(F)(F)F` [Example 81, N-(6-Dimethylamino-2,4-dioxo-7-trifluoromethyl-1,4-dihydro-2H-quinazolin-3-yl)-methanesulfonamide] yielded a melting point of 254 to 272 °C. Still for that read-out and setting: as for `CNC(=O)c1cn(-c2cc3c(=O)n(NS(C)(=O)=O)c(=O)[nH]c3cc2C(F)(F)F)cn1` [Example 91, 1-(3-Methanesulfonylamino-2,4-dioxo-7-trifluoromethyl-1,2,3,4-tetrahydro-quinazolin-6-yl)-1H-imidazole-4-carboxylic acid methylamide], the figure is 292 to 295 °C; as for `CN(C)C(=O)c1cn(-c2cc3c(=O)n(NS(C)(=O)=O)c(=O)[nH]c3cc2C(F)(F)F)cn1` [Example 90, 1-(3-Methanesulfonylamino-2,4-dioxo-7-trifluoromethyl-1,2,3,4-tetrahydro-quinazolin-6-yl)-1H-imidazole-4-carboxylic acid dimethylamide], 284 to 286 °C; as for `CS(=O)(=O)Nn1c(=O)[nH]c2cc(C(F)(F)F)c(NCCO)cc2c1=O` [Example 82, N-[6-(2-Hydroxy-ethylamino)-2,4-dioxo-7-trifluoromethyl-1,4-dihydro-2H-quinazolin-3-yl]-methanesulfonamide], 240 to 246 °C. The same measure, in the same setting: with `CS(=O)(=O)Nn1c(=O)[nH]c2cc(C(F)(F)F)c(-n3cnc(CO)c3)cc2c1=O` [Example 93, N-[6-(4-Hydroxymethyl-imidazol-1-yl)-2,4-dioxo-7-trifluoromethyl-1,4-dihydro-2H-quinazolin-3-yl]-methanesulfonamide] the figure was 225 to 230 °C; with `CCOC(=O)c1ncn(-c2cc3c(=O)n(NS(C)(=O)=O)c(=O)[nH]c3cc2C(F)(F)F)n1` [Example 71, 1-(3-Methanesulfonylamino-2,4-dioxo-7-trifluoromethyl-1,2,3,4-tetrahydro-quinazolin-6-yl)-1H-[1,2,4]triazole-3-carboxylic acid ethyl ester], 267 to 270 °C. On the same count and under the same terms, with `CS(=O)(=O)Nn1c(=O)[nH]c2cc(C(F)(F)F)c(N3CCSCC3)cc2c1=O` [Example 74, N-(2,4-Dioxo-6-thiomorpholin-4-yl-7-trifluoromethyl-1,4-dihydro-2H-quinazolin-3-yl)-methanesulfonamide] the figure was 245 to 260 °C (dec.); with `CS(=O)(=O)Nn1c(=O)[nH]c2cc(C(F)(F)F)c(N3CCC3)cc2c1=O` [Example 79, N-(6-Azetidin-1-yl-2,4-dioxo-7-trifluoromethyl-1,4-dihydro-2H-quinazolin-3-yl)-methanesulfonamide], 266 to 283 °C; with `CNC(=O)c1ncn(-c2cc3c(=O)n(NS(C)(=O)=O)c(=O)[nH]c3cc2C(F)(F)F)n1` [Example 72, 1-(3-Methanesulfonylamino-2,4-dioxo-7-trifluoromethyl-1,2,3,4-tetrahydro-quinazolin-6-yl)-1H-[1,2,4]triazole-3-carboxylic acid methylamide], 257 to 260 °C.

As for `COc1cc2c(=O)n(NS(C)(=O)=O)c(=O)[nH]c2cc1[N+](=O)[O-]` [Example 15, N-(6-Methoxy-7-nitro-2,4-dioxo-1,4-dihydro-2H-quinazolin-3-yl)-methanesulfonamide], the melting point was greater than 280 °C. In turn, `CS(=O)(=O)Nn1c(=O)[nH]c2cc(C(F)(F)F)c(-n3cnc(Br)c3)cc2c1=O` [Example 95, N-[6-(4-Bromo-imidazol-1-yl)-2,4-dioxo-7-trifluoromethyl-1,4-dihydro-2H-quinazolin-3-yl]-methanesulfonamide] yielded a melting point of 229 to 233 °C. In turn, `CS(=O)(=O)Nn1c(=O)[nH]c2cc(C(F)(F)F)c(N3CCC(=O)CC3)cc2c1=O` [Example 78, N-[2,4-Dioxo-6-(4-oxo-piperidin-1-yl)-7-trifluoromethyl-1,4-dihydro-2H-quinazolin-3-yl]-methanesulfonamide] yielded a melting point of 238 to 242 °C.

The compound `COc1ccc(-c2cn(-c3cc4c(=O)n(NS(C)(=O)=O)c(=O)[nH]c4cc3C(F)(F)F)cn2)cc1` [Example 84, N-{6-[4-(4-Methoxy-phenyl)-imidazol-1-yl]-2,4-dioxo-7-trifluoromethyl-1,4-dihydro-2H-quinazolin-3-yl}-methanesulfonamide] gave a melting point of 293 to 294 °C.

For `CS(=O)(=O)Nn1c(=O)[nH]c2cc(C(F)(F)F)c(-n3ccnc3)cc2c1=O` [Example 73, N-(6-Imidazol-1-yl-2,4-dioxo-7-trifluoromethyl-1,4-dihydro-2H-quinazolin-3-yl)-methanesulfonamide], the melting point was 285 to 301 °C (dec.).

`COC(=O)c1cn(-c2cc3c(=O)n(NS(C)(=O)=O)c(=O)[nH]c3cc2C(F)(F)F)cn1` [Example 88, 1-(3-methanesulfonylamino-2,4-dioxo-7-trifluoromethyl-1,2,3,4-tetrahydro-quinazolin-6-yl)-1H-imidazole-4-carboxylic acid methyl ester] returned a melting point of 287 to 288 °C. Same read-out and setting: with `CS(=O)(=O)Nn1c(=O)[nH]c2cc(C(F)(F)F)c(N3CCC(F)(F)CC3)cc2c1=O` [Example 76, N-[6-(4,4-Difluoro-piperidin-1-yl)-2,4-dioxo-7-trifluoromethyl-1,4-dihydro-2H-quinazolin-3-yl]-methanesulfonamide] the figure was 249 to 261 °C (dec.); with `CS(=O)(=O)Nn1c(=O)[nH]c2cc(C(F)(F)F)c(N3CCC4(CC3)OCCO4)cc2c1=O` [Example 77, N-[6-(1,4-Dioxa-8-aza-spiro[4.5]dec-8-yl)-2,4-dioxo-7-trifluoromethyl-1,4-dihydro-2H-quinazolin-3-yl]-methanesulfonamide], 253 to 262 °C; with `COC(=O)Nc1cc2c(=O)n(NS(C)(=O)=O)c(=O)[nH]c2cc1C(F)(F)F` [Example 101, (3-Methanesulfonylamino-2,4-dioxo-7-trifluoromethyl-1,2,3,4-tetrahydro-quinazolin-6-yl)carbamic acid methyl ester], 232.4 to 240.2 °C.

The values are drawn from patent US8299085B2, “Quinazoline derivatives” (Novartis AG, priority 2004, dated 2012).
